Results reported in US20220073874A1, “METHODS FOR ENHANCING DIRECT REPROGRAMMING OF CELLS” (UNIVERSITY OF SOUTHERN CALIFORNIA, priority 2020, published 2022).

Key:
[1] = tested on: mouse embryonic fibroblasts (MEFs); assay: EU incorporation (transcription rate) by flow cytometry; format: cell-based; conditions: Control-Pure and 6FDDRR cells, 4 dpi (FIG. 2L)
[2] = tested on: mouse embryonic fibroblasts (MEFs); assay: viable cells by FSC and SSC profile via FACS; conditions: 6FDDRR, 4 dpi (FIG. 9L)
[3] = tested on: mouse embryonic fibroblasts (MEFs); assay: EdU incorporation (DNA synthesis, S phase) by flow cytometry
[4] = tested on: mouse embryonic fibroblasts (MEFs); format: cell-based; conditions: 6FDD condition, 14 dpi (FIG. 9G)
[5] = tested on: mouse embryonic fibroblasts (MEFs); assay: biotinylated-trimethylpsoralen (bTMP) immunofluorescence, negative DNA supercoiling; format: cell-based; conditions: 100 μM for 15 minutes (FIG. 12A-B)
Experimental: Biotinylated-trimethylpsoralen (bTMP) Immunofluorescence. One day after addition of N3 media (and without addition of glial cultures), cells were treated with 1 μM aphidicolin for 1.5-2 hours in N3 media. For control experiments, MEFs were treated with or without 100 μM bleomycin prior to incubation with psoralen. Then cells were incubated with 0.3 mg/mL EZ-Link Psoralen-PEG3-Biotin (Thermo Cat. No: 29986) for 15 minutes. Cultures were then exposed to 3 kJ m-2 of […] light (Fotodyne UV Transilluminator 3-3000 with 15W bulbs) for 15 minutes at room temperature in the dark followed by 3 washes in PBS. Then cells were fixed with cold 70% ethanol for 30 minutes at 4° C. followed by another 3 washes in PBS. Cells were then incubated with Alexa Fluor 594 Streptavidin (Thermo Cat. No: 532356) for one hour at room temperature in the dark, washed with PBS 3 times, and then stained with Hoescht (1:1000) for 10 minutes at room temperature in the dark. Coverslips were mounted onto glass slides using lmmuMount and imaged using the Zeiss LSM 800 confocal microscope.

C[C@@]1(CO)[C@H](O)CC[C@@]2(C)[C@H]1CC[C@H]1C[C@@H]3C[C@@]12CC[C@]3(O)CO [Aphidicolin, aphidicolin]
transcription rates [1]: increased
cell count (total viable cells) [2]: only slightly reducing
percent of cells in S phase ([3]; EdU incorporation at 4 dpi, 1 μM for 18 hours, 6FDDRR (FIG. 9J-K)): dramatically reduced
EdU incorporation ([3]; uninfected MEFs, 10 μM for 2 hr (FIG. 12N)): did not incorporate EdU

CO[C@@]12[C@H](COC(N)=O)C3=C(C(=O)C(C)=C(N)C3=O)N1C[C@@H]1N[C@@H]12 [mitomycin C]
iMN conversion [4]: impaired

bleomycin
biotinylated TMP intercalation [5]: decreased
